According to ChEMBL document CHEMBL1201862, “PubChem BioAssay data set” (2004):
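Briefly, cells in 96-well plates were exposed to five compound concentrations for 48 h, and endpoints were estimated by linear interpolation. GI50 marks 50% less growth.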 Calls of active or inactive are those of the source. No stated cut-off is given here; in the data, active = GI50 up to about 1.1 µM and inactive = higher.

Tests used:
Experiment in all cases: NCI tumour cell line growth inhibition, 48 h
HT-29 = system: HT-29
NCI-H522 = system: NCI-H522
NCI-H460 = system: NCI-H460
UO-31 = system: UO-31
LOX IMVI = system: LOX IMVI
SK-MEL-28 = system: SK-MEL-28
OVCAR-5 = system: OVCAR-5
M14 = system: M14
UACC-62 = system: UACC-62
IGROV-1 = system: IGROV-1
A549 = system: A549
T47D = system: T47D
HCT-15 = system: HCT-15
NCI/ADR-RES = system: NCI/ADR-RES
SF-295 = system: SF-295
SK-MEL-2 = system: SK-MEL-2
786-0 = system: 786-0
SN12C = system: SN12C
MCF7 = system: MCF7

Structure (SMILES) | GI50 (HT-29) | GI50 (NCI-H522) | GI50 (NCI-H460) | GI50 (UO-31) | GI50 (LOX IMVI) | GI50 (SK-MEL-28) | GI50 (OVCAR-5) | GI50 (M14) | GI50 (UACC-62) | GI50 (IGROV-1) | GI50 (A549) | GI50 (T47D) | GI50 (HCT-15) | GI50 (NCI/ADR-RES) | GI50 (SF-295) | GI50 (SK-MEL-2) | GI50 (786-0) | GI50 (SN12C) | GI50 (MCF7)
Cc1ccc(C2(c3ccc(C)c(O)c3C)CCN(C)CC2)c(C)c1O | 45.1 µM (inactive) | > 100 µM (inactive) | 15.7 µM (inactive) | > 100 µM (inactive) | 34.8 µM (inactive) | 30.4 µM (inactive) | > 100 µM (inactive) | 45.8 µM (inactive) | > 100 µM (inactive) | > 100 µM (inactive) | > 100 µM (inactive) | 64.6 µM (inactive) | > 100 µM | > 100 µM (inactive) | 33.3 µM (inactive) | 26.9 µM (inactive) | 51.2 µM (inactive) | 37.2 µM (inactive) | –
Cc1cc2c3c(nc4ccccc42)C(=O)c2ccccc2-c3n1 | 21.7 µM (inactive) | 1.68 µM (inactive) | – | 10.5 µM (inactive) | – | 14.6 µM (inactive) | 32 µM (inactive) | 4.44 µM (inactive) | 1.8 µM (inactive) | 2.98 µM (inactive) | 7.1 µM (inactive) | 12.7 µM (inactive) | 1.35 µM | 6.53 µM (inactive) | 10.1 µM (inactive) | 17.9 µM (inactive) | 25.5 µM (inactive) | 17 µM (inactive) | 10.5 µM (inactive)
O=[N+]([O-])c1cccnc1NCC1(CO)CCCC1 | 19.3 µM (inactive) | 21.7 µM (inactive) | 22.5 µM (inactive) | – | 16.7 µM (inactive) | 23.2 µM (inactive) | 31.6 µM (inactive) | – | – | 18.3 µM (inactive) | 35.2 µM (inactive) | – | 18.5 µM | 20 µM (inactive) | 23.8 µM (inactive) | – | 26.7 µM (inactive) | 22.3 µM (inactive) | 42.7 µM (inactive)
CC1=N[C@](C)(C2CC3C=CC2C3=O)COC1=O (some centres undefined) | > 100 µM (inactive) | > 100 µM (inactive) | > 100 µM (inactive) | > 100 µM (inactive) | – | > 100 µM (inactive) | > 100 µM (inactive) | > 100 µM (inactive) | > 100 µM (inactive) | > 100 µM (inactive) | > 100 µM (inactive) | > 100 µM (inactive) | – | – | > 100 µM (inactive) | – | > 100 µM (inactive) | > 100 µM (inactive) | > 100 µM (inactive)
O=C(c1ccccc1)c1c(CNCc2ccccc2)n(C(=O)c2ccccc2)c2ccccc12 | 24.6 µM (inactive) | 4.52 µM (inactive) | 14.5 µM (inactive) | 8.95 µM (inactive) | – | > 100 µM (inactive) | > 100 µM (inactive) | 34.4 µM (inactive) | 95.3 µM (inactive) | > 100 µM (inactive) | 22.4 µM (inactive) | – | 28.8 µM | – | 9.51 µM (inactive) | 63.4 µM (inactive) | > 100 µM (inactive) | – | –
CC1=C2C(=O)O[C@@H](c3ccoc3)[C@]2(C)CCC1=O [FRAXINELLONONE] | – | – | > 100 µM (inactive) | > 100 µM (inactive) | > 100 µM (inactive) | > 100 µM (inactive) | > 100 µM (inactive) | > 100 µM (inactive) | > 100 µM (inactive) | > 100 µM (inactive) | > 100 µM (inactive) | > 100 µM (inactive) | > 100 µM | > 100 µM (inactive) | > 100 µM (inactive) | > 100 µM (inactive) | > 100 µM (inactive) | > 100 µM (inactive) | > 100 µM (inactive)
CCC(C(=O)C(=O)OC)P1(=O)OC(C)(C)CN1C(C)(C)C (centres undefined) | > 100 µM (inactive) | – | > 100 µM (inactive) | > 100 µM (inactive) | > 100 µM (inactive) | 11.9 µM (inactive) | > 100 µM (inactive) | > 100 µM (inactive) | 22.6 µM (inactive) | > 100 µM (inactive) | > 100 µM (inactive) | > 100 µM (inactive) | > 100 µM | > 100 µM (inactive) | > 100 µM (inactive) | > 100 µM (inactive) | > 100 µM (inactive) | – | 26.9 µM (inactive)
COc1cc2c(cc1O)C1Cc3ccc(OC)c(O)c3C[N+]1(C)CC2 (centres undefined) | > 100 µM (inactive) | – | > 100 µM (inactive) | > 100 µM (inactive) | > 100 µM (inactive) | > 100 µM (inactive) | > 100 µM (inactive) | > 100 µM (inactive) | > 100 µM (inactive) | > 100 µM (inactive) | > 100 µM (inactive) | > 100 µM (inactive) | > 100 µM | > 100 µM (inactive) | > 100 µM (inactive) | > 100 µM (inactive) | > 100 µM (inactive) | > 100 µM (inactive) | > 100 µM (inactive)
CC(=O)Nc1ccc(NC(=O)CC(=O)Nc2ccc(NC(C)=O)cc2)cc1 | > 100 µM (inactive) | > 100 µM (inactive) | > 100 µM (inactive) | > 100 µM (inactive) | > 100 µM (inactive) | > 100 µM (inactive) | – | > 100 µM (inactive) | 5.74 µM (inactive) | > 100 µM (inactive) | > 100 µM (inactive) | 32 µM (inactive) | 25.8 µM | > 100 µM (inactive) | > 100 µM (inactive) | – | > 100 µM (inactive) | > 100 µM (inactive) | > 100 µM (inactive)
CCCCOC(=O)C1C(c2ccc(Cl)cc2)NC(c2ccc(Cl)cc2)C(C(=O)OCCCC)S1(=O)=O (centres undefined) | > 100 µM (inactive) | > 100 µM (inactive) | > 100 µM (inactive) | > 100 µM (inactive) | > 100 µM (inactive) | > 100 µM (inactive) | > 100 µM (inactive) | > 100 µM (inactive) | > 100 µM (inactive) | > 100 µM (inactive) | > 100 µM (inactive) | – | > 100 µM | – | > 100 µM (inactive) | > 100 µM (inactive) | > 100 µM (inactive) | > 100 µM (inactive) | –
Cc1nc2[nH]ccn2c(=O)c1CCCl | 33.7 µM (inactive) | 20.7 µM (inactive) | 20.6 µM (inactive) | 33 µM (inactive) | 16.6 µM (inactive) | 30.1 µM (inactive) | > 100 µM (inactive) | 31.8 µM (inactive) | 24.8 µM (inactive) | 26.2 µM (inactive) | 45.5 µM (inactive) | 91 µM (inactive) | 39.7 µM | 26.5 µM (inactive) | 31.6 µM (inactive) | – | 25.5 µM (inactive) | 19.6 µM (inactive) | 68.1 µM (inactive)
O=C1[C@H](O)[C@@H]2C(O)O[C@H]3[C@@H]2N1C[C@H]3[Si](c1ccccc1)(c1ccccc1)c1ccccc1 (some centres undefined) | > 100 µM (inactive) | – | > 100 µM (inactive) | > 100 µM (inactive) | > 100 µM (inactive) | > 100 µM (inactive) | > 100 µM (inactive) | > 100 µM (inactive) | > 100 µM (inactive) | > 100 µM (inactive) | > 100 µM (inactive) | 29.1 µM (inactive) | > 100 µM | > 100 µM (inactive) | > 100 µM (inactive) | > 100 µM (inactive) | > 100 µM (inactive) | – | > 100 µM (inactive)
Cc1cc2c(C)nn(Cc3ccccc3Cl)c2c(C#N)c1C | > 100 µM (inactive) | – | > 100 µM (inactive) | > 100 µM (inactive) | > 100 µM (inactive) | > 100 µM (inactive) | > 100 µM (inactive) | – | > 100 µM (inactive) | > 100 µM (inactive) | > 100 µM (inactive) | – | > 100 µM | – | > 100 µM (inactive) | > 100 µM (inactive) | > 100 µM (inactive) | > 100 µM (inactive) | –
Cc1nc(O)nc(N/N=C/c2c3ccccc3c(Cl)c3ccccc23)c1C(=O)Nc1ccc(Cl)cc1 | 55.7 µM (inactive) | > 100 µM (inactive) | 45.4 µM (inactive) | > 100 µM (inactive) | 38.9 µM (inactive) | > 100 µM (inactive) | > 100 µM (inactive) | 79.3 µM (inactive) | 50.5 µM (inactive) | 71.1 µM (inactive) | 63.4 µM (inactive) | > 100 µM (inactive) | > 100 µM | – | – | > 100 µM (inactive) | 36 µM (inactive) | > 100 µM (inactive) | > 100 µM (inactive)
C=CCNC(=S)NNC(=O)c1c(C)nc2sccn12 | > 100 µM (inactive) | > 100 µM (inactive) | > 100 µM (inactive) | – | > 100 µM (inactive) | > 100 µM (inactive) | > 100 µM (inactive) | – | > 100 µM (inactive) | > 100 µM (inactive) | > 100 µM (inactive) | – | > 100 µM | – | > 100 µM (inactive) | > 100 µM (inactive) | > 100 µM (inactive) | > 100 µM (inactive) | –
CCOC1=C2N=C(C(CC)c3ccccc3F)N=C2C(=O)c2ccccc21 (centres undefined) | > 100 µM (inactive) | > 100 µM (inactive) | > 100 µM (inactive) | > 100 µM (inactive) | – | > 100 µM (inactive) | – | > 100 µM (inactive) | > 100 µM (inactive) | – | > 100 µM (inactive) | – | > 100 µM | – | > 100 µM (inactive) | > 100 µM (inactive) | > 100 µM (inactive) | > 100 µM (inactive) | –
CC(C)(C)Nc1noc(=O)n1C(C)(C)C | > 100 µM (inactive) | > 100 µM (inactive) | > 100 µM (inactive) | > 100 µM (inactive) | > 100 µM (inactive) | > 100 µM (inactive) | > 100 µM (inactive) | > 100 µM (inactive) | > 100 µM (inactive) | > 100 µM (inactive) | > 100 µM (inactive) | – | > 100 µM | > 100 µM (inactive) | > 100 µM (inactive) | > 100 µM (inactive) | > 100 µM (inactive) | > 100 µM (inactive) | > 100 µM (inactive)
